# Laboratory results: patent publication US9481648B2, “Kinase inhibitors” (Respivert Limited, priority 2013, dated 2016)
# Biological target: GSK 3α (Homo sapiens (Human), UniProt P49840)
# Test: GSK 3α enzyme inhibition (FRET, Z-LYTE; Method 2)
# Format: biochemical
# Conditions: read-out: IC50 Values for Enzyme Inhibition GSK3α
# Experimental: The enzyme inhibitory activities of compounds disclosed herein are determined by FRET using synthetic peptides labelled with both donor and acceptor fluorophores (Z-LYTE, Invitrogen Ltd., Paisley, UK).
# The inhibitory activities of compounds of the invention against the GSK 3α enzyme isoform (Invitrogen), are evaluated by determining the level of activation I phosphorylation of the target peptide. The GSK3-α protein (500 ng/mL, 2.5 μL) is mixed with the test compound (2.5 μL at either 4 μg/mL, 0.4 μg/mL, 0.04 μg/mL, or 0.004 μg/mL) for 2 hr at RT. The FRET peptide (8 μM, 2.5 μL), which is a phosphorylation target for GSK3α, and ATP (40 μM, 2.5 μL) are then added to the enzyme\compound mixture and the resulting mixture incubated for 1 hr. Development reagent (protease, 5 μL) is added for 1 hr prior to detection in a fluorescence microplate reader (Varioskan® Flash, ThermoFisher Scientific).
# In all cases, the site-specific protease cleaves non-phosphorylated peptide only and eliminates the FRET signal. Phosphorylation levels of each reaction are calculated using the ratio of coumarin emission (donor) over fluorescein emission (acceptor), for which high ratios indicate high phosphorylation and low ratios indicate low phosphorylation levels.
# This method follows the same steps as Method 1 above, but utilises a shorter period of mixing of the test compound (105 minutes instead of 2 hours) with the GSK3-α protein. In addition, the concentrations of test compound employed are either 10 μg/mL, 1 μg/mL, 0.1 μg/mL, or 0.01 μg/mL
# GSK 3α, sequence (P49840 whole entry): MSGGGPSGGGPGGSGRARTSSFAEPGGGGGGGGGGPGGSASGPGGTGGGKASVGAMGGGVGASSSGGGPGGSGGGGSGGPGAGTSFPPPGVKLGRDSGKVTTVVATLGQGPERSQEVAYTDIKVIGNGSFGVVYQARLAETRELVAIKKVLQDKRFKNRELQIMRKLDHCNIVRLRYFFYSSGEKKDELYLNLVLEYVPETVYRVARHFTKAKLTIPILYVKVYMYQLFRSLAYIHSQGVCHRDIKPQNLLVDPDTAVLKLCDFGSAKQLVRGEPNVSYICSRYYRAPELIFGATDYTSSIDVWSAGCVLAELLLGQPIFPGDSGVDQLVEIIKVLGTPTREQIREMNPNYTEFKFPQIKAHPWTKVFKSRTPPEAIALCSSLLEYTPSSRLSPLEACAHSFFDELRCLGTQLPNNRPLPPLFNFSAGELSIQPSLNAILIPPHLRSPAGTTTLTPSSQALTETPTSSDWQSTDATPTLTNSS
row,Compound,IC50
1,"COCCOCCOCCOc1cc(Nc2nccc(Oc3ccc(NC(=O)Nc4cc(C(C)(C)C)cc(NS(=O)(=O)N(C)C)c4OC)c4ccccc34)n2)cc(OC)c1 [Example 74, N-(5-(tert-Butyl)-2-methoxy-3-(3-(4-((2-((3-methoxy-5-(2-(2-(2-methoxyethoxy)ethoxy)-ethoxy)phenyl)amino)pyrimidin-4-yl)oxy)naphthalen-1-yl)ureido)phenyl)dimethylamino-sulfonamide]",9680 nM
2,"C#Cc1cc(Nc2nccc(Oc3ccc(NC(=O)Nc4cc(C(C)(C)C)cc(C(=O)NC)c4OC)c4ccccc34)n2)cc(C(=O)N[C@@H](C)CN2CCOCC2)c1 [Example 60, (S)-5-(tert-Butyl)-3-(3-(4-((2-((3-ethynyl-5-((1-morpholinopropan-2-yl)carbamoyl)phenyl)amino)pyrimidin-4-yl)oxy)naphthalen-1-yl)ureido)-2-methoxy-N-methylbenzamide]",539 nM
3,"COc1cc(Nc2nccc(Oc3ccc(NC(=O)Nc4cc(C(C)(C)C)cc(NS(C)(=O)=O)c4OC)c4ccccc34)n2)cc(OCCOCCOCCC(=O)O)c1 [Example 30, 3-(2-(2-(3-((4-((4-(3-(5-(tert-Butyl)-2-methoxy-3-(methylsulfonamido)phenyl)ureido)-naphthalen-1-yl)oxy)pyrimidin-2-yl)amino)-5-methoxyphenoxy)ethoxy)ethoxy)propanoic acid]",150 nM
4,"COc1cc(Nc2nccc(Oc3ccc(NC(=O)Nc4cc(C(C)(C)C)cc(NS(C)(=O)=O)c4OC)c4ccccc34)n2)cc(C(=O)NCCN2CCN(C)CC2)c1 [Example 85(e), 3-[[4-[[4-[[5-tert-Butyl-3-(methanesulfonamido)-2-methoxyphenyl]-carbamoylamino]-1-naphthyl]oxy]pyrimidin-2-yl]amino]-5-methoxy-N-[2-(4-methyypiperazin-1-yl)ethyl]benzamide]",300 nM
5,"COCCOCCOCCOc1cc(Nc2nccc(Oc3ccc(NC(=O)Nc4cc(C(C)(C)C)cc(N)c4OC)c4ccccc34)n2)cc(OC)c1 [Example 25, 1-(3-Amino-5-(tert-butyl)-2-methoxyphenyl)-3-(4-((2-((3-methoxy-5-(2-(2-(2-methoxy-ethoxy)ethoxy)ethoxy)phenyl)amino)pyrimidin-4-yl)oxy)naphthalen-1-yl)urea]",1890 nM
6,"COc1cc(Nc2cc(Oc3ccc(NC(=O)Nc4cc(C(C)(C)C)cc(NS(C)(=O)=O)c4OC)c4ccccc34)ccn2)cc(C(=O)NCCN2CCCN(C)CC2)c1 [Example 85(p), 3-[[4-[[4-[[5-tert-Butyl-3-(methanesulfonamido)-2-methoxyphenyl]-carbamoylamino]-1-naphthyl]oxy]-2-pyridyl]amino]-5-methoxy-N-[2-(4-methyl-1,4-diazean-1-yl)ethyl]benzamide]",1160 nM
7,"COc1c(NC(=O)Nc2ccc(Oc3ccnc(Nc4ccccc4)n3)c3ccccc23)cc(C(C)(C)C)cc1C(=O)NC1COC1 [Example 78, 5-(tert-Butyl)-2-methoxy-N-(oxetan-3-yl)-3-(3-(4-((2-(phenylamino)pyrimidin-4-yl)oxy)-naphthalen-1-yl)ureido)benzamide]",896 nM
8,"COc1cc(Nc2nccc(Oc3ccc(NC(=O)Nc4cc(C(C)(C)C)cc(NS(C)(=O)=O)c4OC)c4ccccc34)n2)cc(C(=O)C2CC2)c1 [Example 50, N-(5-(tert-Butyl)-3-(3-(4-((2-((3-(cyclopropanecarbonyl)-5-methoxyphenyl)amino)-pyrimidin-4-yl)oxy)naphthalen-1-yl)ureido)-2-methoxyphenyl)methanesulfonamide]",13800 nM
9,"COCCOCCOCC[S+]([O-])c1cc(Nc2cc(Oc3ccc(NC(=O)Nc4cc(C(C)(C)C)cc(NS(C)(=O)=O)c4OC)c4ccccc34)ccn2)cc(OC)c1 (stereo not shown) [Example 85(x), 1-[5-tert-Butyl-3-(methanesulfonamido)-2-methoxyphenyl]-3-[4-[2-[3-methoxy-5-[2-[2-(2-methoxyethoxy)ethoxy]ethylsufinyl]anilino]pyridin-4-yl]oxy-1-naphthyl]urea]",878 nM
10,"C#Cc1cc(Nc2cc(Oc3ccc(NC(=O)Nc4cc(C(C)(C)C)cc(NS(C)(=O)=O)c4OC)c4ccccc34)ccn2)cc(C(=O)NCCN2CCN(C)CC2)c1 [Example 85(c), 3-[[4-[[4-[[5-tert-Butyl-3-(methanesulfonamido)-2-methoxyphenyl]-carbamoylamino]-1-nahthyl]oxy]-2-pyridyl]amino]-5-ethynyl-N-[2-(4-methylpiperazin-1-yl)ethyl]benzamide]",3560 nM
11,"COCCOCCOCCOc1cc(Nc2nccc(Oc3ccc(NC(=O)Nc4cc(C(C)(C)C)cc5nc(C)oc45)c4ccccc34)n2)cc(OC)c1 [Example 64, 1-(5-(tert-Butyl)-2-methylbenzo[d]oxazol-7-yl)-3-(4-((2-((3-methoxy-5-(2-(2-(2-methoxy-ethoxy)ethoxy)ethoxy)phenyl)amino)pyrimidin-4-yl)oxy)naphthalen-1-yl)urea]",1460 nM
12,"COc1cc(Nc2cc(Oc3ccc(NC(=O)Nc4cc(C(C)(C)C)cc(NS(C)(=O)=O)c4OC)c4ccccc34)ccn2)cc(C(=O)NCCN2CC[S+]([O-])CC2)c1 [85(j), 3-[[4-[[4-[[5-tert-Butyl-3-(methanesulfonanido)-2-methoxyphenyl]-carbamoylamino]-1-naphthyl]oxy]-2-pyridyl]amino]-5-methoxy-N-[2-(1-oxo-1,4-thiazinan-4-yl)ethyl]benzamide]",736 nM
13,"COCCOCCOCCOc1cc(Nc2nccc(Oc3ccc(NC(=O)Nc4cc(C(C)(C)C)cc(C#N)c4OC)c4ccccc34)n2)cc(OC)c1 [Example 22, 1-(5-(tert-Butyl)-3-cyano-2-methoxyphenyl)-3-(4-((2-((3-methoxy-5-(2-(2-(2-methoxy-ethoxy)ethoxy)ethoxy)phenyl)amino)pyrimidin-4-yl)oxy)naphthalen-1-yl)urea]",2140 nM
14,COCCOCCOCCOc1cc(Nc2nccc(Oc3ccc(NC(=O)Nc4cc(C(C)(C)C)cc(NS(=O)(=O)C(F)(F)F)c4OC)c4ccccc34)n2)cc(OC)c1 [Example 71],2620 nM
15,"COCCOCCOCCOCCOCCOCCOCCNC(=O)c1cc(Nc2nccc(Oc3ccc(NC(=O)Nc4cc(C(C)(C)C)cc(NS(C)(=O)=O)c4OC)c4ccccc34)n2)cc(OC)c1 [Example 40, 3-((4-((4-(3-(5-(tert-Butyl)-2-methoxy-3-(methylsulfonamido)phenyl)ureido)naphthalen-1-yl)oxy)pyrimidin-2-yl)amino)-N-(2,5,8,11,14,17,20-heptaoxadocosan-22-yl)-5-methoxy-benzamide]",379 nM
16,"COCCOCCOCCOc1cc(Nc2nccc(Oc3ccc(NC(=O)Nc4cc(C(C)(C)C)cc(C(=O)NC(C)C)c4OC)c4ccccc34)n2)cc(OC)c1 [Example 42, 5-(tert-Butyl)-N-isopropyl-2-methoxy-3-(3-(4-((2-((3-methoxy-5-(2-(2-(2-methoxyethoxy)-ethoxy)ethoxy)phenyl)amino)pyrimidin-4-yl)oxy)naphthalen-1-yl)ureido)benzamide]",705 nM
17,"COCCNC(=O)c1cc(C(C)(C)C)cc(NC(=O)Nc2ccc(Oc3ccnc(Nc4cc(OC)cc(OCCOCCOCCOC)c4)n3)c3ccccc23)c1OC [Example 43, 5-(tert-Butyl)-2-methoxy-3-(3-(4-((2-((3-methoxy-5-(2-(2-(2-methoxyethoxy)ethoxy)-ethoxy)phenyl)amino)pyrimidin-4-yl)oxy)naphthalen-1-yl)ureido)-N-(2-methoxyethyl)-benzamide]",520 nM
18,"COCCOCCOCCOc1cc(Nc2nccc(Oc3ccc(NC(=O)Nc4cc(C(C)(C)C)cc(C(=O)NCc5ccccc5)c4OC)c4ccccc34)n2)cc(OC)c1 [Example 38, N-Benzyl-5-(tert-butyl)-2-methoxy-3-(3-(4-((2-((3-methoxy-5-(2-(2-(2-methoxyethoxy)-ethoxy)ethoxy)phenyl)amino)pyrimidin-4-yl)oxy)naphthalen-1-yl)ureido)benzamide]",10700 nM
19,"COc1cc(Nc2cc(Oc3ccc(NC(=O)Nc4cc(C(C)(C)C)cc(NS(C)(=O)=O)c4OC)c4ccccc34)ccn2)cc(C(=O)NCCN2CCCCC2)c1 [83(e), 3-((4-((4-(3-(5-(tert-butyl)-2-methoxy-3-(methylsulfonamido)phenyl)ureido)naphthalen-1-yl)oxy)pyridin-2-yl)amino)-5-methoxy-N-(2-(piperidin-1-yl)ethyl)benzamide]",1590 nM
20,"COc1c(NC(=O)Nc2ccc(Oc3ccnc(Nc4ccccc4)c3)c3ccccc23)cc(C(C)(C)C)cc1C(=O)NC1CCN(C)CC1 [84(b), 3-[[4-[(2-Anilino-4-pyridyl)oxy]-1-naphthyl]carbamoylamino]-5-tert-butyl-2-methoxy-N-(1-methyl-4-piperidyl)benzamide]",4510 nM
21,"COCCOCCOCCOc1cc(Nc2nccc(Oc3ccc(NC(=O)Nc4cc(C(C)(C)C)cc(NS(=O)(=O)N5CCCCC5)c4OC)c4ccccc34)n2)cc(OC)c1 [Example 73, N-(5-(tert-Butyl)-2-methoxy-3-(3-(4-((2-((3-methoxy-5-(2-(2-(2-methoxyethoxy)ethoxy)-ethoxy)phenyl)amino)pyrimidin-4-yl)oxy)naphthalen-1-yl)ureido)phenyl)piperidine-1-sulfonamide]",11300 nM
22,"COc1c(NC(=O)Nc2ccc(Oc3ccnc(Nc4ccccc4)c3)c3ccccc23)cc(C(C)(C)C)cc1C(=O)N[C@@H]1CCOC1 [84(c), 3-[[4-[(2-Anilino-4-pyridyl)oxy]-1-naphthyl]carbamoylamino]-5-tert-butyl-2-methoxy-N-[(3R)-tetrahydrofuran-3-yl]benzamide]",4950 nM
